From PubChem BioAssay (NCI)
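Following 48 hours of exposure in 96-well plates, responses at five concentrations were used to interpolate endpoints linearly. Here, GI50 denotes the concentration required for 50% inhibition of growth. TGI denotes the concentration required for complete inhibition of growth.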

Tests used:
Assay in all cases: NCI tumour cell line growth inhibition, 48 h
A498 renal = tested on: A498 renal
A549 NSCLC = tested on: A549 NSCLC
ACHN renal = tested on: ACHN renal
MALME-3M melanoma = tested on: MALME-3M melanoma
OVCAR-3 ovarian = tested on: OVCAR-3 ovarian
OVCAR-5 ovarian = tested on: OVCAR-5 ovarian
SF-539 CNS = tested on: SF-539 CNS
SW-620 colon = tested on: SW-620 colon
COLO 205 colon = tested on: COLO 205 colon
LOX IMVI melanoma = tested on: LOX IMVI melanoma

Row | SMILES | TGI (A498 renal) | TGI (A549 NSCLC) | TGI (ACHN renal) | TGI (MALME-3M melanoma) | TGI (OVCAR-3 ovarian) | TGI (OVCAR-5 ovarian) | TGI (SF-539 CNS) | TGI (SW-620 colon) | TGI (COLO 205 colon) | TGI (LOX IMVI melanoma) | GI50 (A549 NSCLC) | GI50 (ACHN renal) | GI50 (COLO 205 colon) | GI50 (LOX IMVI melanoma) | GI50 (MALME-3M melanoma) | GI50 (OVCAR-3 ovarian) | GI50 (OVCAR-5 ovarian) | GI50 (SW-620 colon) | GI50 (A498 renal) | GI50 (SF-539 CNS)
1 | O=C1C(=O)c2ccccc2C(O)=C1CN(CCCl)CCCl | > 100 µM | > 100 µM | > 100 µM | > 100 µM | > 100 µM | > 100 µM | > 100 µM | > 100 µM | – | – | – | – | – | – | – | – | – | – | – | –
2 | NC(CCP(=O)(O)CCC1C=CC=CC1)C(=O)O (stereo not given) | – | > 100 µM | > 100 µM | – | > 100 µM | > 100 µM | > 100 µM | > 100 µM | > 100 µM | > 100 µM | – | – | – | – | – | – | – | – | – | –
3 | Nc1ccc2c3c(n(CCCCl)c(=O)c2c1)-c1cc2c(cc1C3=O)OCO2 | – | > 100 µM | > 100 µM | > 100 µM | > 100 µM | > 100 µM | – | > 100 µM | > 100 µM | > 100 µM | 7.75 µM | > 100 µM | > 100 µM | > 100 µM | 7.79 µM | > 100 µM | > 100 µM | > 100 µM | – | –
4 | Cc1cccc2[s+]snc12 | > 100 µM | > 100 µM | > 100 µM | > 67.3 µM | > 89 µM | > 100 µM | > 100 µM | 48.9 µM | 50.8 µM | > 100 µM | – | – | – | – | – | – | – | – | – | –
5 | COc1cc(C2=C(C#N)C(N)OC3=C2COc2ccccc23)cc(OC)c1OC (stereo not given) | 56.3 µM | 49.3 µM | 32.2 µM | 32.3 µM | 34.3 µM | > 100 µM | 50.5 µM | > 100 µM | > 100 µM | > 100 µM | – | – | – | – | – | – | – | – | – | –
6 | COC1CC(OC2CCC3(C)C(CCC45CCC(C6=CC(=O)OC6)C(C)(CCC43)C5=O)C2)OC(C)C1O (stereo not given) | > 100 µM | > 100 µM | 41.1 µM | – | 82 µM | > 100 µM | 63.3 µM | > 100 µM | > 100 µM | > 100 µM | – | – | – | – | – | – | – | – | – | –
7 | O=[N+]([O-])c1ccc(Nc2nc3ccccc3s2)cc1 | 92 µM | > 100 µM | > 100 µM | 46.1 µM | 57.7 µM | 84.6 µM | – | > 100 µM | – | 38.9 µM | – | – | – | – | – | – | – | – | – | –
8 | N=C(N)c1csc([C@@H]2O[C@H](CO)[C@@H](O)[C@H]2O)n1 | – | > 100 µM | > 100 µM | > 100 µM | – | – | > 100 µM | > 100 µM | – | > 100 µM | – | – | – | – | – | – | – | – | – | –
9 | CCC(=O)NC(Nc1ccc(O)cc1)(C(F)(F)F)C(F)(F)F | > 100 µM | – | > 100 µM | > 100 µM | > 100 µM | > 100 µM | > 100 µM | – | – | > 100 µM | – | – | – | – | – | – | – | – | – | –
10 | c1cn2cc(-c3ccc4ncn(C5CCCCC5)c4c3)nc(-c3ccc4c(c3)ncn4C3CCCCC3)c2n1 | 3.22 µM | 3.54 µM | 3.07 µM | 3.75 µM | 3.36 µM | – | 3.15 µM | – | 3.79 µM | – | 1.94 µM | 1.68 µM | 1.93 µM | – | 2.11 µM | 1.83 µM | – | – | 1.77 µM | 1.63 µM
11 | CC(C)(C)[Si](C)(C)OCC1CCC(n2cnc3c(N)ncnc32)O1 (stereo not given) | > 100 µM | – | – | – | > 100 µM | > 100 µM | – | > 100 µM | > 100 µM | > 100 µM | – | – | – | – | – | – | – | – | – | –
12 | NNc1nc2ccccc2s1 | > 100 µM | > 100 µM | > 100 µM | > 100 µM | – | > 100 µM | > 100 µM | > 100 µM | > 100 µM | > 100 µM | – | – | – | – | – | – | – | – | – | –
13 | CC12CCC(C(=O)N3CC=CCC3)(OC1=O)C2(C)C (stereo not given) | > 100 µM | > 100 µM | – | > 100 µM | > 100 µM | > 100 µM | > 100 µM | > 100 µM | > 100 µM | > 100 µM | – | – | – | – | – | – | – | – | – | –
